#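 Step 1: Grow cells in 96-well plates. Step 2: Expose to compound for 48 hours at 5 concentrations. Step 3: Interpolate endpoints linearly; if unreached, use highest concentration. GI50: concentration for 50% inhibition of growth.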 Calls of active or inactive are those of the source. No stated cut-off is given here; in the data, active = GI50 up to about 1.1 µM and inactive = higher.
# Experiments:
# Assay in all cases: growth of human tumour cells (NCI), 48 h
# A498 = test system: A498
# SK-MEL-28 = test system: SK-MEL-28
# OVCAR-5 = test system: OVCAR-5
# SNB-75 = test system: SNB-75
# OVCAR-4 = test system: OVCAR-4
# MDA-N = test system: MDA-N
# CAKI-1 = test system: CAKI-1
# 786-0 = test system: 786-0
# SF-268 = test system: SF-268
# COLO 205 = test system: COLO 205
# HCC 2998 = test system: HCC 2998
# SW-620 = test system: SW-620
# EKVX = test system: EKVX
# UO-31 = test system: UO-31
# NCI-H522 = test system: NCI-H522
# U-251 = test system: U-251
# CCRF-CEM = test system: CCRF-CEM
# MDA-MB-435 = test system: MDA-MB-435
# OVCAR-3 = test system: OVCAR-3
# HOP-62 = test system: HOP-62
# SNB-19 = test system: SNB-19
# SF-539 = test system: SF-539
# M14 = test system: M14
# SN12C = test system: SN12C
# ACHN = test system: ACHN
# A549 = test system: A549
# HCT-116 = test system: HCT-116
# MCF7 = test system: MCF7
# LOX IMVI = test system: LOX IMVI
# TK-10 = test system: TK-10
# BT-549 = test system: BT-549
# SK-MEL-2 = test system: SK-MEL-2
# HT-29 = test system: HT-29
# SF-295 = test system: SF-295
# UACC-62 = test system: UACC-62
# HOP-92 = test system: HOP-92
# MDA-MB-231 = test system: MDA-MB-231
# OVCAR-8 = test system: OVCAR-8
# RPMI-8226 = test system: RPMI-8226
# HCT-15 = test system: HCT-15
# NCI-H226 = test system: NCI-H226
# K562 = test system: K562
# T47D = test system: T47D
# SK-OV-3 = test system: SK-OV-3
# KM12 = test system: KM12
# PC-3 = test system: PC-3
# NCI/ADR-RES = test system: NCI/ADR-RES
# IGROV-1 = test system: IGROV-1
# Malme-3M = test system: Malme-3M
# SK-MEL-5 = test system: SK-MEL-5
# HL-60 = test system: HL-60
# MOLT-4 = test system: MOLT-4
# UACC-257 = test system: UACC-257
# NCI-H23 = test system: NCI-H23
# RXF 393 = test system: RXF 393
# Hs-578T = test system: Hs-578T
# NCI-H460 = test system: NCI-H460
# SR = test system: SR
smiles,measurement,setting,value
CCCCCCCCP(=O)(O)OP(=O)(O)OCC1OC(n2ccc(N)nc2=O)C(O)C1O (configuration not stated),GI50,A498,> 100 µM (inactive)
same,GI50,SK-MEL-28,> 100 µM (inactive)
same,GI50,OVCAR-5,> 100 µM (inactive)
same,GI50,SNB-75,> 100 µM (inactive)
same,GI50,OVCAR-4,> 100 µM (inactive)
same,GI50,MDA-N,> 100 µM (inactive)
same,GI50,CAKI-1,> 100 µM (inactive)
same,GI50,786-0,> 100 µM (inactive)
same,GI50,SF-268,> 100 µM (inactive)
same,GI50,COLO 205,> 100 µM (inactive)
same,GI50,HCC 2998,> 100 µM (inactive)
same,GI50,SW-620,> 100 µM (inactive)
same,GI50,EKVX,> 100 µM (inactive)
same,GI50,UO-31,> 100 µM (inactive)
same,GI50,NCI-H522,> 100 µM (inactive)
same,GI50,U-251,> 100 µM (inactive)
same,GI50,CCRF-CEM,> 100 µM (inactive)
same,GI50,MDA-MB-435,> 100 µM (inactive)
same,GI50,OVCAR-3,> 100 µM (inactive)
same,GI50,HOP-62,> 100 µM (inactive)
same,GI50,SNB-19,> 100 µM (inactive)
same,GI50,SF-539,> 100 µM (inactive)
same,GI50,M14,> 100 µM (inactive)
same,GI50,SN12C,> 100 µM (inactive)
same,GI50,ACHN,> 100 µM (inactive)
same,GI50,A549,> 100 µM (inactive)
same,GI50,HCT-116,> 100 µM (inactive)
same,GI50,MCF7,> 100 µM (inactive)
same,GI50,LOX IMVI,> 100 µM (inactive)
same,GI50,TK-10,> 100 µM (inactive)
same,GI50,BT-549,> 100 µM (inactive)
same,GI50,SK-MEL-2,> 100 µM (inactive)
same,GI50,HT-29,> 100 µM (inactive)
same,GI50,SF-295,> 100 µM (inactive)
same,GI50,UACC-62,> 100 µM (inactive)
same,GI50,HOP-92,> 100 µM (inactive)
same,GI50,MDA-MB-231,> 100 µM (inactive)
same,GI50,OVCAR-8,> 100 µM (inactive)
same,GI50,RPMI-8226,> 100 µM (inactive)
same,GI50,HCT-15,> 100 µM
same,GI50,NCI-H226,> 100 µM (inactive)
same,GI50,K562,> 100 µM (inactive)
same,GI50,T47D,> 100 µM (inactive)
same,GI50,SK-OV-3,> 100 µM (inactive)
same,GI50,KM12,> 100 µM (inactive)
same,GI50,PC-3,> 100 µM (inactive)
same,GI50,NCI/ADR-RES,> 100 µM (inactive)
same,GI50,IGROV-1,> 100 µM (inactive)
same,GI50,Malme-3M,> 100 µM (inactive)
same,GI50,SK-MEL-5,> 100 µM (inactive)
same,GI50,HL-60,> 100 µM (inactive)
same,GI50,MOLT-4,> 100 µM (inactive)
same,GI50,UACC-257,> 100 µM (inactive)
same,GI50,NCI-H23,> 100 µM (inactive)
same,GI50,RXF 393,> 100 µM (inactive)
same,GI50,Hs-578T,> 100 µM (inactive)
same,GI50,NCI-H460,> 100 µM (inactive)
COc1ccc2[nH]c3c(C)c4ccnc(NCCCN(C)CCCNc5ccc6nnn7c8ccccc8c(=O)c5c67)c4c(C)c3c2c1,GI50,A498,1.35 µM (inactive)
same,GI50,SK-MEL-28,1.75 µM (inactive)
same,GI50,OVCAR-5,1.24 µM (inactive)
same,GI50,SNB-75,1.01 µM (active)
same,GI50,OVCAR-4,1.02 µM (active)
same,GI50,MDA-N,0.583 µM (active)
same,GI50,CAKI-1,1.03 µM (active)
same,GI50,786-0,0.237 µM (active)
same,GI50,SF-268,0.679 µM (active)
same,GI50,COLO 205,0.367 µM (active)
same,GI50,HCC 2998,0.209 µM (active)
same,GI50,SW-620,0.013 µM (active)
same,GI50,EKVX,1.01 µM (active)
same,GI50,UO-31,0.603 µM (active)
same,GI50,NCI-H522,0.107 µM (active)
same,GI50,U-251,0.223 µM (active)
same,GI50,CCRF-CEM,0.0047 µM (active)
same,GI50,MDA-MB-435,0.362 µM (active)
same,GI50,OVCAR-3,1.17 µM (inactive)
same,GI50,HOP-62,0.714 µM (active)
same,GI50,SNB-19,0.711 µM (active)
same,GI50,SF-539,0.237 µM (active)
same,GI50,M14,0.938 µM (active)
same,GI50,SN12C,0.242 µM (active)
same,GI50,ACHN,0.0773 µM (active)
same,GI50,A549,0.0395 µM (active)
same,GI50,HCT-116,0.0217 µM (active)
same,GI50,MCF7,0.0561 µM (active)
same,GI50,LOX IMVI,0.228 µM (active)
same,GI50,TK-10,1.07 µM (active)
same,GI50,BT-549,1.83 µM (inactive)
same,GI50,SK-MEL-2,> 10 µM (inactive)
same,GI50,HT-29,0.0266 µM (active)
same,GI50,SF-295,0.14 µM (active)
same,GI50,SR,0.335 µM (active)
same,GI50,UACC-62,> 10 µM (inactive)
same,GI50,MDA-MB-231,0.181 µM (active)
same,GI50,OVCAR-8,0.297 µM (active)
same,GI50,RPMI-8226,0.0474 µM (active)
same,GI50,HCT-15,0.114 µM
same,GI50,NCI-H226,> 10 µM (inactive)
same,GI50,K562,0.226 µM (active)
same,GI50,T47D,1.81 µM (inactive)
same,GI50,SK-OV-3,2.64 µM (inactive)
same,GI50,KM12,0.432 µM (active)
same,GI50,PC-3,0.597 µM (active)
same,GI50,NCI/ADR-RES,0.982 µM (active)
same,GI50,IGROV-1,0.308 µM (active)
same,GI50,HL-60,0.135 µM (active)
same,GI50,MOLT-4,0.00104 µM (active)
same,GI50,UACC-257,1.43 µM (inactive)
same,GI50,NCI-H23,0.745 µM (active)
same,GI50,RXF 393,1.03 µM (active)
same,GI50,Hs-578T,1.38 µM (inactive)
same,GI50,NCI-H460,0.0399 µM (active)

# — ChEMBL document CHEMBL1201862, “PubChem BioAssay data set” (2004)
